Results published in ChEMBL document CHEMBL5528063, “Antitrypanosomal Chloronitrobenzamides” (J Med Chem, 2024).
Calls of active or inactive are those of the source. The calls are words filed in the database; no cut-off is given here.

Columns and labels:
[1] = Cytotoxicity against human BJ cells assessed as inhibition of cell growth incubated for 72 hrs by CellTiter-Glo luminescence assay; assay type: toxicity, cell-based
[2] = system: Trypanosoma brucei brucei; test: Antitrypanosomal activity against Trypanosoma brucei brucei 427 assessed as inhibition of parasite proliferation incubated for 48 hrs by CellTiter-Glo luminescent assay; assay type: functional, organism-based; settings: Trypanosoma brucei, 427, 48 h
[3] = Metabolic stability in […] mouse liver microsomes assessed as half-life at 20 uM measured after 2 hrs by UPLC-MS analysis; assay type: ADME, Microsome
[4] = Aqueous solubility of compound in 1-propanol at pH 7.4 incubated for 18 hrs by UV spectrum analysis; assay type: physicochemical; settings: for solubility at 18 h: 1-propanol (aqueous, pH 7.4), pH 7.4
[5] = system: Trypanosoma brucei brucei; test: Antitrypanosomal activity against Trypanosoma brucei brucei 427 assessed as inhibition of parasite proliferation at 0.7 to 15000 nM incubated for 48 hrs by CellTiter-Glo luminescent assay; assay type: functional, organism-based; settings: dose 0.7-15000 nM
[6] = system: Trypanosoma brucei brucei; test: Trypanocidal activity against Trypanosoma brucei brucei 427 assessed as reduction in parasitemia at 2.2 uM incubated for 4 days by clonal dilution based CellTiter-Glo assay; assay type: functional, organism-based; settings: time 4.0 day

Row | SMILES | EC50 [2] [µM] | EC50 at 72 h [1] [µM] | also measured
1 | Cc1ccc(-c2nnn[nH]2)cc1NC(=O)c1cc([N+](=O)[O-])ccc1Cl | > 8 | > 18 | –
2 | O=C(Nc1cncc(-c2nc3ccccc3s2)c1)c1cnccc1Cl | > 5 | > 11 | –
3 | Cc1ccc(-c2nnn[nH]2)nc1NC(=O)c1cnccc1Cl | – | > 18 | Activity [5]: inactive
4 | O=C(Nc1cccc(-c2nccs2)c1)c1cc([N+](=O)[O-])ccc1Cl | > 7 | > 18 | –
5 | O=C(Nc1cccc(-c2ncco2)c1)c1cc([N+](=O)[O-])ccc1Cl | > 8 | > 18 | –
6 | O=C(Nc1ccc(Cl)c(-c2nc3ncccc3o2)c1)c1cc([N+](=O)[O-])ccc1Cl | > 6 | > 26 | –
7 | Cc1ccc(-c2nc3ccccc3s2)cc1NC(=O)c1cnccc1C(F)(F)F | > 7 | > 14 | –
8 | COc1ccncc1C(=O)Nc1cc(-c2nc3ccccc3s2)ccc1C | > 12 | > 21 | –
9 | Cc1ccc(-c2nc3ccccc3s2)cc1NC(=O)c1cnccc1O | > 8 | > 14 | –
10 | Cc1ccc(-c2nc3ncccc3o2)cc1NC(=O)c1cc([N+](=O)[O-])ccc1Cl | 0.55 | > 25 | half-life at 20 µM [3]: 1.2 min; solubility at 18 h [4]: < 1.56 µM
11 | O=C(Nc1cccc(-c2nccs2)n1)c1cnccc1Cl | > 44 | > 18 | –
12 | N=C(N)c1ccc(OCCCCCOc2ccc(C(=N)N)cc2)cc1 | – | – | Activity [6]: Active
13 | Cc1ccc(-c2nc3ccccc3s2)cc1NC(=O)c1cnccc1C#N | > 7 | > 13 | –
14 | O=C(Nc1cccc(-c2ncc[nH]2)c1)c1cc([N+](=O)[O-])ccc1Cl | > 8 | > 18 | –
15 | Cc1ccc(-c2nc3ccccc3s2)cc1NC(=O)c1cnccc1F | > 10.6 | > 18 | –
16 | Cc1ccc(-c2nc3ccccc3s2)cc1NC(=O)c1cc(C(F)(F)F)ccc1Cl | > 6 | > 15 | –
17 | Cc1ccc(-c2nc3ccccc3s2)cc1NC(=O)c1cc(NC(=O)OC(C)(C)C)ccc1Cl | > 8 | > 15 | –
18 | Cc1nc(-c2cccc(NC(=O)c3cc([N+](=O)[O-])ccc3Cl)c2)sc1C | 2.22 | > 17 | –
19 | O=C(NC1CCCC(c2nc3ccccc3s2)C1)c1cc([N+](=O)[O-])ccc1Cl (stereo not given) | > 7 | > 15 | –

The next lines start with results.

Row | EC50 [2] [µM] | SMILES | EC50 at 72 h [1] [µM] | also measured
20 | 0.044 | Cc1ccc(-c2nc3ccccc3s2)cc1NC(=O)c1cnccc1Cl | > 25 | half-life at 20 µM [3]: 12 min; solubility at 18 h [4]: < 1 µM
21 | 0.004 | Cc1ccc(-c2nc3ccccc3s2)cc1NC(=O)c1cc([N+](=O)[O-])ccc1F | > 17 | half-life at 20 µM [3]: 21 min; solubility at 18 h [4]: < 1.56 µM
22 | > 5 | Cc1ccc(-c2nc3ccccc3s2)cc1NC(=O)c1cc(C(=O)O)ccc1Cl | > 15 | –
23 | > 5 | Cc1ccc(-c2nc3ccccc3s2)cc1NC(=O)c1cc(N)ccc1Cl | > 15 | –
24 | > 33 | CSc1ccc(Cl)c(C(=O)Nc2cccc(-c3nc4ccccc4s3)c2)c1 | > 25 | –
25 | > 16.1 | COC(=O)c1ccc(Cl)c(C(=O)Nc2cc(-c3nc4ccccc4s3)ccc2C)c1 | > 28 | –
26 | > 7 | CC(=O)Nc1ccc(Cl)c(C(=O)Nc2cc(-c3nc4ccccc4s3)ccc2C)c1 | > 15 | –
27 | > 7 | Cc1ccc(-c2nc3ccccc3s2)cc1NC(=O)c1cc([N+](=O)[O-])ccc1C(F)(F)F | > 15 | –
28 | 4.56 | CS(=O)(=O)c1ccc(Cl)c(C(=O)Nc2cccc(-c3nc4ccccc4s3)c2)c1 | > 25 | –
29 | > 9 | Cc1ccc(-c2nc3ccccc3s2)cc1NC(=O)c1cc([N+](=O)[O-])ccc1C#N | > 17 | –
30 | 0.039 | Cc1ccc(-c2nc3ccccc3s2)cc1NC(=O)c1cc([N+](=O)[O-])ccc1Cl | > 25 | half-life at 20 µM [3]: > 240 min; solubility ([4]; buffer, pH 7.4, 18 h): Insoluble(Bld)
31 | > 1 | COc1ccc([N+](=O)[O-])cc1C(=O)Nc1cc(-c2nc3ccccc3s2)ccc1C | > 2 | –
32 | 0.1 | O=C(Nc1cccc(-c2nc3ccccc3s2)c1)c1cc([N+](=O)[O-])ccc1Cl | > 15 | half-life at 20 µM [3]: 11 min; solubility at 18 h [4]: < 1 µM
33 | > 8 | Cc1ccc(-c2nc3ccccc3s2)cc1NC(=O)c1cc(F)ccc1Cl | > 15 | –
34 | > 7 | O=C(Nc1cccc(-c2nc3ccccc3s2)n1)c1cc([N+](=O)[O-])ccc1Cl | > 15 | –
35 | > 6 | Cc1ccc(-c2nc3ccccc3s2)cc1NC(=O)c1cc(C#N)ccc1Cl | > 15 | –
36 | > 11 | Cc1ccc(-c2nc3ccccc3s2)cc1NC(=O)c1cc(C(N)=O)ccc1Cl | > 22 | –
37 | > 7 | Cc1ccc(-c2nc3ccccc3s2)cc1NC(=O)c1cc([N+](=O)[O-])ccc1O | > 14 | –
38 | > 8 | C[S+]([O-])c1ccc(Cl)c(C(=O)Nc2cccc(-c3nc4ccccc4s3)c2)c1 (stereo not given) | > 25 | –
39 | 0.09 | O=C(Nc1cccc(-c2nc3ccccc3s2)n1)c1cnccc1Cl | > 15 | half-life at 20 µM [3]: 2 min; solubility at 18 h [4]: < 1.56 µM
40 | > 8 | O=C(Nc1cncc(-c2nc3ccccc3s2)c1)c1cc([N+](=O)[O-])ccc1Cl | > 15 | –
41 | 0.22 | O=C(Nc1cc(-c2nc3ccccc3s2)ccc1Br)c1cc([N+](=O)[O-])ccc1Cl | > 20 | half-life at 20 µM [3]: 1.7 min; solubility at 18 h [4]: < 1.56 µM
